Source: article PMC7757739 (Chemical research in toxicology, 2019)
Values joined by “and” are separate entries in the source; they are usually repeats but may differ in a detail not shown here. Equal entries are not always repeated. Where two headings read alike, the source gives them in different places. Values belong to the compound of their own block, whether it stands above or below them.

Key:
human AhR = target: T1, human AhR (Homo sapiens, UniProt P35869); assay: AhR-responsive luciferase reporter gene induction in recombinant human hepatoma; conditions: for AhR-dependent reporter gene activity (efficacy), in words: Figure 3; for increased potency compared to tryptanthrin (3) / potency relative to TCDD, in words: 6h
T1 sequence (P35869 11-848): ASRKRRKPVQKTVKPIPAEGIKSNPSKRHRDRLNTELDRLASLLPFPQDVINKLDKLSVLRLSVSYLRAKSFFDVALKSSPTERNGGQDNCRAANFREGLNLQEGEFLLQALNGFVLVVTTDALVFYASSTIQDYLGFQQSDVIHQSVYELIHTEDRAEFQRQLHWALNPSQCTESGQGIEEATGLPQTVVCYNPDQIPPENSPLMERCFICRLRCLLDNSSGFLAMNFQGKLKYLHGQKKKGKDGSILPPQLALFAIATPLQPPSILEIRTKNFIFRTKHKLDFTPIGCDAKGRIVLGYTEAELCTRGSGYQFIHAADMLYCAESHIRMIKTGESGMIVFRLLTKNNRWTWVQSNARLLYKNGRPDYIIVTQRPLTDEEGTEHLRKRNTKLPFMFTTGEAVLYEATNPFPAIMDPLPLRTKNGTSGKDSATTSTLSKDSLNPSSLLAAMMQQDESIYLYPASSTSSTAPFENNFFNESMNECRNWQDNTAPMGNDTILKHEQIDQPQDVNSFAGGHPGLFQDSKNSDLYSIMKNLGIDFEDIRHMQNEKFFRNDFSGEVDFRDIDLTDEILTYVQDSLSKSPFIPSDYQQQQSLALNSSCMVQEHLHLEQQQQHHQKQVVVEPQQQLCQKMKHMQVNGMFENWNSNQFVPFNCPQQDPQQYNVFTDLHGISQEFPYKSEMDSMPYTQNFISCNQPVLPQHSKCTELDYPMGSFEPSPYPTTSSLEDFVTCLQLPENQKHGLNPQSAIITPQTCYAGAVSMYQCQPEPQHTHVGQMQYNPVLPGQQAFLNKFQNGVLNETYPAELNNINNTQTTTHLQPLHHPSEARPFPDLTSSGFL

mouse AhR [1] = target: T2, mouse AhR (Mus musculus, UniProt P30561); conditions: mouse H1L7.5c3 cells
mouse AhR [2] = target: T2, mouse AhR; assay: cell-based
AhR [3] = conditions: ref [37]; cited from earlier work
AhR [4] = target: AhR (Homo sapiens, UniProt P35869); assay type: cell-based; conditions: HG2L7.5c1 cells, 6h, Figure 4
AhR [5] = conditions: mice or mouse cells; ref [34], [35], [76]; cited from earlier work

T2 sequence (P30561 10-805 limits assumed): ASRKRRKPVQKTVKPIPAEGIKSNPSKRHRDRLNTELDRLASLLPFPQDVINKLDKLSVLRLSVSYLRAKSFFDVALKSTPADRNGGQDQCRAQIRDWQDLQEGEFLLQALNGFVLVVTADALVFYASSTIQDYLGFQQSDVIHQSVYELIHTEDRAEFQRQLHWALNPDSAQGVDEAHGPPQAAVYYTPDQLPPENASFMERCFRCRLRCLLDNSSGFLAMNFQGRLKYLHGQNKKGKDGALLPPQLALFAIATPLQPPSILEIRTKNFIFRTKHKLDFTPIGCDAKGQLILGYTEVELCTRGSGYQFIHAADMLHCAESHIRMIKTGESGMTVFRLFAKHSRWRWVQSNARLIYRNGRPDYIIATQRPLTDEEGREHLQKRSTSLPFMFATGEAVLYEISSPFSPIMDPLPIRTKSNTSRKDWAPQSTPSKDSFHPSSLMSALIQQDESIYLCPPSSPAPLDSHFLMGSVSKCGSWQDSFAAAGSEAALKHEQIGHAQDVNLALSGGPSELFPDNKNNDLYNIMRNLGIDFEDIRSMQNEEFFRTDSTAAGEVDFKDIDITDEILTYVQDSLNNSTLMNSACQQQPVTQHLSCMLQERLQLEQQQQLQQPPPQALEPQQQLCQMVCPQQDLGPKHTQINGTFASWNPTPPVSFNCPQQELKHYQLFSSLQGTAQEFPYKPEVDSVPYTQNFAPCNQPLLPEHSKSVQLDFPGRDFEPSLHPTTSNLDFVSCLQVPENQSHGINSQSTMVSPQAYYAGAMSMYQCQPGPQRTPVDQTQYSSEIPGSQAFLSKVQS
T2 sequence (P11499 whole entry partner): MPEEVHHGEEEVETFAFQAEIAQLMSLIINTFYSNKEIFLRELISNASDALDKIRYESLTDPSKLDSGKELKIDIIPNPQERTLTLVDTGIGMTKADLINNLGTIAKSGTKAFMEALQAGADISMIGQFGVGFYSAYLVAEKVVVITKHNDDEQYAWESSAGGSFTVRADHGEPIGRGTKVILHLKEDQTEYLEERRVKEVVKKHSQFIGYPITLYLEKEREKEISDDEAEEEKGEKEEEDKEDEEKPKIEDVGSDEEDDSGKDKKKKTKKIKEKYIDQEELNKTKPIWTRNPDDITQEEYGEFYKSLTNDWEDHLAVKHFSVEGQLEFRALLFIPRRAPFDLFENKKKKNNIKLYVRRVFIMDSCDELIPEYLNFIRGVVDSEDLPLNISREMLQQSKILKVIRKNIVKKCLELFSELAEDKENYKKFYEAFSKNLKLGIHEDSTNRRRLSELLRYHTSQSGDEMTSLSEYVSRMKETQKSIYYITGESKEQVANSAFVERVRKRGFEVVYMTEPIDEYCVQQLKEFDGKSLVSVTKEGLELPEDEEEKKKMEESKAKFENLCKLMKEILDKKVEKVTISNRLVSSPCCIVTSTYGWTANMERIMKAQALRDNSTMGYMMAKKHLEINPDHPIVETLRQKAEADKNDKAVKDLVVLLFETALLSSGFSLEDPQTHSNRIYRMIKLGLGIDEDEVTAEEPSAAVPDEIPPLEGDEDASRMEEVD
T2 sequence (O08915 whole entry partner): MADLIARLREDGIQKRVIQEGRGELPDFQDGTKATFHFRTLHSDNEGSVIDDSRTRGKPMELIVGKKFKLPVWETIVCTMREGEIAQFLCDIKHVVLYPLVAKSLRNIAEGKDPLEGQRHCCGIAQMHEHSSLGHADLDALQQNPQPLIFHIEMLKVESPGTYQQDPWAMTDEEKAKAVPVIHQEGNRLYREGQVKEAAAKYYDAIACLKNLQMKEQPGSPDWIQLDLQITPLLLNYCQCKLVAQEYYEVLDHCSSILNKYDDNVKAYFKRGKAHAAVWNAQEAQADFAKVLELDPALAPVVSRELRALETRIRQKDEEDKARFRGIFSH

AhR-dependent reporter gene activity (efficacy), in words (human AhR; human cells): completely inactive
SMILES: O=C(O)Cc1ccc2c(c1)-n1c(nc3cc(CC(=O)O)ccc3c1=O)C2=O [3g, 3,9-dicarboxymethylotryptanthrin]

SMILES: O=C1c2ccccc2-n2c1nc1cc(Br)ccc1c2=O [3h, 3-bromotryptanthrin]
times less potent than TCDD (mouse AhR [1]): 10,000 fold
times less potent than TCDD (mouse AhR [1]; listed as 3-bromotryptanthrin): > 10,000 fold
times more potent than TCDD (human AhR; human HG2L7.5c1 cells): 10 fold
increased potency compared to tryptanthrin (3) (human AhR; human HG2L7.5c1 cells): 3,000 fold
AhR-dependent reporter gene activity (efficacy), in words (human AhR; human cells): comparable to that produced by a maximally inducing concentration of TCDD

SMILES: O=C1Nc2cc(Br)ccc2/C1=C1/Nc2cc(Br)ccc2C1=O [2f, 6,6’-dibromoindirubin]
potency relative to TCDD, in words (human AhR; human HG2L7.5c1 cells): comparable to or greater than TCDD

SMILES: O=C1c2ccccc2-n2c1nc1ccccc1c2=O [compound 3, Tryptanthrin]
EC50 (mouse AhR [2]): 810 nM
EC50 (human AhR): 170 nM

SMILES: Clc1cc2c(cc1Cl)Oc1cc(Cl)c(Cl)cc1O2 [TCDD, 2,3,7,8-tetrachlorodibenzo-p-dioxin, reference compound]
EC50 (mouse AhR [2]): 0.1 nM
EC50 (human AhR; EC50 for gene induction at 24h of incubation, human cells, 24h incubation): 0.3 nM

SMILES: Cc1ccccc1N=Nc1ccc(NC(=O)c2ccnn2C)c(C)c1 [CH223191]
effect of antagonist on AhR activation by indirubin (AhR [3]): little effect
effect of antagonist on ability of TCDD to bind to and activate the AhR (AhR [3]): effectively inhibit
inhibition of TCDD-dependent induction of luciferase reporter gene expression (AhR [4]): inhibit

SMILES: O=C1Nc2ccccc2/C1=C1/Nc2ccccc2C1=O [compound 2, Indirubin]
less potent than TCDD (AhR [5]): ~ 100

SMILES: O=C1c2ccc(Br)cc2-n2c1nc1cc(Br)ccc1c2=O [3f, 3,9-dibromotryptanthrin]
times less potent than TCDD (mouse AhR [1]): 4,000 fold and ~ 4,000 fold
increased potency compared to tryptanthrin (3) (human AhR; human HG2L7.5c1 cells): 350 fold
potency relative to TCDD, in words (human AhR; human HG2L7.5c1 cells): comparable to the potency of TCDD
potency relative to TCDD, in words (human AhR; human HG2L7.5c1 cells, listed as 3,9-dibromotryptanthrin): equipotent
EC50 (human AhR; human HG2L7.5c1 cells, evaluated at 6h): 0.5 nM
AhR-dependent reporter gene activity (efficacy), in words (human AhR; human cells): induced maximal AhR-dependent reporter gene activity

SMILES: O=C1Nc2ccc(Cl)cc2C1=C1Nc2ccc(Cl)cc2C1=O [2b, 5,5’-dichloroindirubin]
potency relative to TCDD, in words (human AhR; human HG2L7.5c1 cells): comparable to or greater than TCDD

SMILES: CC(C)n1cnc2c(NCCc3ccc(O)cc3)nc(-c3csc4ccccc34)nc21 [StemRegenin1]
inhibition of TCDD-dependent induction of luciferase reporter gene expression (AhR [4]): inhibit
